Source: US20050288222A1, “Methods for enhancing the bioavailability of a drug” (priority 2000, published 2005)
Values after ≈ are worked out from the molar mass of the structure shown. Values joined by “and” are separate entries in the source; they are usually repeats but may differ in a detail not shown here. Identical values can stand only once. Like-named read-outs stand apart in the source and are kept apart here. Blank lines part the entries; values can stand above or below the compound they belong to. Non-standard residues stand in square brackets, D forms with d. Residues, ends and D or L forms follow the SMILES beside them. *: point of attachment. X1 = CC(C)C[C@H](C(=O)*)N(C)C

Assays:
[1] = in vivo
[2] = Biodistribution of 3H-PPI-558 +/- cyclosporin A (experiment 4, Table III); details: for Kidney (expressed as % administered): rat, sac t = 61 min
[3] = rat, in vivo
in vivo [4] = assay: in vivo
in vivo [5] = details: male, Sprague-Dawley, rat
Method: (§1) The drug cocktail was infused (100 μL/h) via a cannula in the external carotid artery so that the infusate was picked up by the blood and carried directly to the Circle of Willis/brain (via the left internal carotid artery, PTA occluded). At 30 minutes post cessation of the 10 minute IA infusion the left side of the brain was voided of blood by manually infusing 1 ml of saline via the cannula in the external carotid artery with the common carotid artery now ligated. The perfused left forebrain (choroid plexus removed) was subjected to capillary depiction (as described by Triguero et al., 1990) so as to produce brain supernatant that was void of blood vessels (as determined by alkaline phosphatase measurements).

[6] = rat, in vivo; remark: listed apart in the source
From the text: The perfused, ipsilateral, left forebrain (choroid plexus removed) was subjected to capillary depletion (as described by Triguero et al., 1990) so as to produce brain supernatant that was void of blood vessels (as determined by alkaline phosphatase measurements).

[7] = rat, in vivo; remark: listed apart in the source
[8] = rat, in vivo; remark: listed apart in the source
Method: as §1

B-amyloid = B-amyloid (Homo sapiens, UniProt P05067); assay: KD of potent B-amyloid aggregation inhibitors (Table II); type: binding
[9] = rat, in vivo; remark: listed apart in the source

Sequence of B-amyloid (P05067 672-711 limits assumed): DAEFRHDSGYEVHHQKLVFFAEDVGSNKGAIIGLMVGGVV

Compound: CC(C)C[C@@H](NC(=O)c1ccc(O)cc1)C(=O)N[C@@H](C(=O)N[C@H](Cc1ccccc1)C(=O)N[C@H](Cc1ccccc1)C(=O)N[C@H](C)C(N)=O)C(C)C [PPI-558, 4-Hydroxybenzoyl-D-Leu-D-Val-D-Phe-D-Phe-D-Ala-NH2]
capillary bound level [1]: very low levels | Kidney (expressed as % administered) ([2]; PPI-558/DMPC (1:30) approx. 3 mg/kg IV, without cyclosporin A, MEAN): 0.95 % administered | Kidney (expressed as % administered) ([2]; PPI-558/DMPC (1:30) approx. 3 mg/kg IV, without cyclosporin A, single animals): 0.7 % administered and 1.7 % administered and 0.5 % administered | Kidney (expressed as % administered) ([2]; cyclosporin A 50 mg/kg IV + PPI-558/DMPC (1:30), MEAN): 2.59 % administered | Kidney (expressed as % administered) ([2]; cyclosporin A 50 mg/kg IV + PPI-558/DMPC (1:30), single animals, 50 mg/kg): 2.5 % administered and 2.7 % administered | Kidney FOLD INCREASE ([2]; with cyclosporin A versus without): 3 fold | Cartass FOLD INCREASE [3]: 4 fold | Colon FOLD INCREASE [3]: 4 fold | Duodenum FOLD INCREASE [3]: 6 fold | Fat FOLD INCREASE [3]: 2 fold | Heart FOLD INCREASE [3]: 3 fold | Ileum FOLD INCREASE [3]: 2 fold | Liver FOLD INCREASE [3]: 0.4 fold | Lung FOLD INCREASE [3]: 1 fold | Muscle FOLD INCREASE [3]: 5 fold | Pancreas FOLD INCREASE [3]: 7 fold | Spleen FOLD INCREASE [3]: 1 fold | Tongue FOLD INCREASE [3]: 5 fold | Urine FOLD INCREASE [3]: 1 fold | blood at sac FOLD INCREASE [3]: 6 fold | levels within the small intestine in the presence of cyclosporin A [3]: higher levels | level at time molar (in vivo [4]): < 5 nM | level at time molar at 0.5 h (in vivo [5]): > 100 nM | elevation of brain levels in the presence of cyclosporin A [6]: 10 fold | plasma levels in the presence of cyclosporin A [7]: elevated | capillary bound level [8]: approx. 250 nM equiv. | solubility (physchem): 1 µg/mL (≈ 1.4 µM)

Compound: CC(C)C[C@@H](N)C(=O)N[C@H](Cc1ccccc1)C(=O)N[C@H](Cc1ccccc1)C(=O)N[C@@H](C(=O)N[C@H](CC(C)C)C(N)=O)C(C)C [PPI-578, H-lffvl-NH2]
Kd (B-amyloid): 0.29 nM | solubility (physchem): 2500 µg/mL (≈ 3930 µM)

Compound: CC(C)C[C@H](C(=O)N[C@@H](C(=O)N[C@H](Cc1ccccc1)C(=O)N[C@H](Cc1ccccc1)C(=O)N[C@H](CC(C)C)C(N)=O)C(C)C)N(C)C [PPI-1007, (CH3)2-lvffl-NH2] (X1-[dV][dF][dF][dL]-NH2)
solubility (physchem): 180 µg/mL (≈ 271 µM)

Compound: CC(C)C[C@@H](N)C(=O)N[C@@H](C(=O)N[C@H](Cc1ccccc1)C(=O)NNC(=O)[C@@H](Cc1ccccc1)NC(=O)[C@H](NC(=O)[C@H](N)CC(C)C)C(C)C)C(C)C [PPI-1125, (H-lvf-NH-)2]
solubility (physchem): 5000 µg/mL (≈ 6660 µM)

Compound: CN[C@H](CC(C)C)C(=O)N[C@@H](C(=O)N[C@H](Cc1ccccc1)C(=O)N[C@H](Cc1ccccc1)C(=O)N[C@H](CC(C)C)C(N)=O)C(C)C [PPI-1019, N-methyl-(D-Leu-D-Val-D-Phe-D-Phe-D-Leu)-NH2]
levels within the liver in the presence of cyclosporin A [9]: decreased levels | elevation of brain levels in the presence of cyclosporin A [6]: 5 fold | plasma levels in the presence of cyclosporin A [7]: elevated | solubility (physchem): 1000 µg/mL (≈ 1540 µM)

Continued, values first:

Kd (B-amyloid): 0.33 nM | solubility (physchem): 970 µg/mL (≈ 1560 µM)
Compound: CC(C)C[C@@H](N)C(=O)N[C@@H](C(=O)N[C@H](Cc1ccccc1)C(=O)N[C@H](Cc1ccccc1)C(=O)N[C@@H](C(N)=O)C(C)C)C(C)C [PPI-657, H-D-Leu-D-Val-D-Phe-D-Phe-D-Val-NH2] (H-[dL][dV][dF][dF][dV]-NH2)

Kd (B-amyloid): 0.92 nM | solubility (physchem): 1490 µg/mL (≈ 2510 µM)
Compound: CC(C)C[C@@H](N)C(=O)N[C@@H](C(=O)N[C@H](Cc1ccccc1)C(=O)N[C@H](Cc1ccccc1)C(=O)N[C@H](C)C(N)=O)C(C)C [PPI-465, H-lvffa-NH2]
